“Also recorded” adds a separate entry of the source.
Assays:
[1] = Chronic feeding of ketone supplements: weight and caloric intake; format: in vivo, Sprague Dawley rats; details: for Approximate caloric intake compared to controls: rats, following adaptation to diet (weeks 13-15)
From the text: (§1) Male Sprague Dawley rats (N=10/group) were fed ad libitum (approximate dose based on food intake recorded during study) for the study duration (15 weeks).
(§2) Measured Parameters: • Weight • Food/calorie intake • Blood glucose • Blood ketones • Triglycerides • Total Cholesterol • HDL • LDL • Safety/toxicity—serum clinical chemistry tests for kidney and liver function Inflammatory Profile: […]

[2] = tested on: kidney and liver function; assay: Chronic feeding of ketone supplements: serum clinical chemistry for kidney and liver function; format: in vivo, Sprague Dawley rats; design: key: ns = no change from control; details: rat serum, 15 weeks, vs SD-fed control
From the text: as §1, §2

[3] = tested on: serum cytokines/chemokines; assay: Chronic feeding of ketone supplements: serum inflammatory profile; format: in vivo, Sprague Dawley rats; design: key to MIP-1a, change from control / IL-4, change from control / IL-1b, change from control / IL-2, change from control / IL-10, change from control / IFNy, change from control / IL-5, change from control / IL-17a, change from control / IL-18, change from control / MCP-1, change from control / IP-10, change from control / GRO/KC, change from control / VEGF, change from control / LIX, change from control / MIP-2, change from control / TNF-a, change from control / RANTES, change from control / G-CSF, change from control / GM-CSF, change from control / IL-1a, change from control / Leptin, change from control: ↑: Increased from control; ↓: Decreased from control; —: no change; T: Trend towards significance; *p < 0.05; **p < 0.01; ***p < 0.001; details: rat serum, 15 weeks
From the text: as §1, §2

Ube3a-deficient mice [4] = assay: Kainic acid-induced seizures; format: in vivo; details: kainic acid 20 mg/kg i.p.; 10 and 45 minutes post-administration; AS treated vs AS control
Procedure: (§3) Mice. Mice with the UBE3A null mutation (AS) were described previously (Jiang Y H et al., Neuron, 1998, 21(4):799-811). All experiments were performed on mice that have been backcrossed to the C57BL/6 line (Jackson Labs, Bar Harbor, Me.) for at least 5 generations. Female C57BL/6 mice containing the null mutation were bred with C57BL/6 (WT) males to produce maternally-deficient AS offspring and WT littermate controls. Audiogenic seizure experiments were performed on mice with the 129/SvEv background, with the same breeding scheme as the C57BL/6 mice. Animals were kept on a 12 hour light-dark cycle and food and water provided ad libitum. All animal testing procedures were approved by the Institutional Animal Care and Use Committee of the University of South Florida and followed the NIH guidelines for the care and use of laboratory animals.
(§4) Ketone ester administration. Control mice received standard rodent chow fed ad libitum. Mice receiving the ketone supplement were administered BD-AcAc2 with their standard rodent chow ad libitum.
Kainic acid injections. Mice were injected with 20 mg/kg of kainic acid i.p. and were monitored for seizure activity for 45 minutes and behavioral seizure score was recorded (modified Racine's scale).

Ube3a-deficient mice [5] = assay: Novel object recognition; format: in vivo; details: AS mice, 24 hours following training
Procedure: as §3, §4
Novel Object Recognition. Novel object recognition was used to evaluate recognition memory. Following habituation to an open field arena, mice were allowed to explore the arena containing two identical objects for 15 minutes. 24 hours following training, a novel object replaced one of the old objects and mice were allowed to explore for 5 minutes.

Ube3a-deficient mice [6] = assay: Rotarod testing; format: in vivo; details: AS mice, treated vs AS littermate controls
Procedure: as §3, §4
Rotarod testing. Mice were placed on a rotating rod (Rotarod, Ugo Basile, Italy) that accelerated from 4 to 40 rpm. For two consecutive days, four trials were performed per day with a 45-60 min interval between trials. The maximum duration of each trial was 5 minutes. The time that the mice fell off the rod was recorded. […]

Ube3a-deficient mice [7] = assay: Induced audiogenic seizures; format: in vivo; details: for latency to seize: AS treated vs AS control mice, audiogenic seizures
Procedure: as §3, §4
Induced audiogenic seizures. Seizures were induced by exposing mice to a 120-dB white noise in a sound-attenuated chamber until seizures occurred or for a maximum of 60 s. Both seizure frequency and threshold (time until seizures began) were recorded.

[8] = Blood glucose and ketone levels in AS mice; format: in vivo; details: for blood ketones: AS mice on KE diet vs WT and AS controls; for blood glucose: AS mice on KE diet vs WT and AS mice on control diet
Procedure: as §4
Blood glucose and ketone levels. Blood was collected from the tip of the tail weekly using the Precision Xtra system with both glucose and ketone test strips, each requiring 0.6 μL samples.
(§5) The inventors hypothesized that supplemental ketone administration would decrease seizure frequency, increase seizure threshold, and improve hippocampal-dependent cognition and motor learning deficiencies.

[9] = Group weights of AS mice on ketone ester diet; format: in vivo; details: 10% BD-AcAc2 in chow ad libitum, 8 weeks, vs AS controls
Procedure: as §3, §4, §5

Ube3a-deficient mice [10] = assay: Associative fear conditioning; format: in vivo; details: AS mice
Procedure: as §3, §4
Associative fear conditioning. Fear conditioning was used to assess hippocampal function and associative learning and memory. Training included 2 shock-tone (CS/US) pairings. Detailed methods have been previously described (Trotter, J. et al., The Journal of Neuroscience, 2013, 33(39):[…]). […]

[11] = listed as ketone ester supplement

CC(=O)CC(=O)OCCC(C)OC(=O)CC(C)=O (racemic) [HKE]
Approximate caloric intake compared to controls [1]: ~−7 % kcal
Alanine Aminotransferase (ALT) [2]: Ns
Albumin [2]: Ns
Alkaline Phosphatase (ALP) [2]: Ns
Blood Urea Nitrogen (BUN) [2]: Ns
Calcium [2]: Ns
Chloride [2]: Ns
Cholesterol [2]: Ns
Creatinine [2]: Ns
Gamma Glutamyltransferase (GGT) [2]: Ns
Globulin [2]: Ns
Glucose [2]: Ns
Phosphorous [2]: Ns
Potassium [2]: Ns
Sodium [2]: Ns
Total Bilirubin [2]: Ns
Total Protein [2]: Ns
Eotaxin, change from control [3]: ↓**
Fractalkine, change from control [3]: ↑*
G-CSF, change from control [3]: ↓T
GM-CSF, change from control [3]: —
GRO/KC, change from control [3]: ↓T
IFNy, change from control [3]: ↓*
IL-1a, change from control [3]: ↓*
IL-1b, change from control [3]: ↓*
IL-2, change from control [3]: ↓T
IL-4, change from control [3]: —
IL-5, change from control [3]: ↓*
IL-6, change from control [3]: ↓*
IL-10, change from control [3]: ↓T
IL-12(p70), change from control [3]: ↓*
IL-13, change from control [3]: ↓**
IL-17a, change from control [3]: —
IL-18, change from control [3]: ↓T
IP-10, change from control [3]: ↓***
LIX, change from control [3]: ↓*
Leptin, change from control [3]: ↓*
MCP-1, change from control [3]: ↓T
MIP-1a, change from control [3]: —
MIP-2, change from control [3]: —
RANTES, change from control [3]: ↓**
TNF-a, change from control [3]: —
VEGF, change from control [3]: —

CC(=O)CC(=O)OCCC(C)OC(=O)CC(C)=O (racemic) [LKE]
Approximate caloric intake compared to controls [1]: ~+10 % kcal
Alanine Aminotransferase (ALT) [2]: ns
Albumin [2]: ns
Alkaline Phosphatase (ALP) [2]: ns
Blood Urea Nitrogen (BUN) [2]: ns
Calcium [2]: ns
Chloride [2]: ns
Cholesterol [2]: ns
Creatinine [2]: ns
Gamma Glutamyltransferase (GGT) [2]: ns
Globulin [2]: ns
Glucose [2]: ns
Phosphorous [2]: ns
Potassium [2]: ns
Sodium [2]: ns
Total Bilirubin [2]: ns
Total Protein [2]: ns
Eotaxin, change from control [3]: ↓T
Fractalkine, change from control [3]: ↑**
G-CSF, change from control [3]: —
GM-CSF, change from control [3]: —
GRO/KC, change from control [3]: —
IFNy, change from control [3]: —
IL-1a, change from control [3]: —
IL-1b, change from control [3]: —
IL-2, change from control [3]: —
IL-4, change from control [3]: —
IL-5, change from control [3]: —
IL-6, change from control [3]: ↓T
IL-10, change from control [3]: —
IL-12(p70), change from control [3]: ↓*
IL-13, change from control [3]: ↓T
IL-17a, change from control [3]: —
IL-18, change from control [3]: —
IP-10, change from control [3]: —
LIX, change from control [3]: —
Leptin, change from control [3]: —
MCP-1, change from control [3]: —
MIP-1a, change from control [3]: ↑T
MIP-2, change from control [3]: —
RANTES, change from control [3]: —
TNF-a, change from control [3]: —
VEGF, change from control [3]: ↑*

CC(=O)CC(=O)OCCC(C)OC(=O)CC(C)=O (stereo not drawn) [BD-AcAc2, R,S-1,3-butanediol acetoacetate diester]
behavioral seizure score (modified Racine's scale) (Ube3a-deficient mice [4]): significant decrease in behavioral seizure score
novel object recognition memory (Ube3a-deficient mice [5]): enhances novel object recognition memory
rotarod performance (Ube3a-deficient mice [6]): increases rotarod performance
food consumption / caloric intake ([1]; male Sprague Dawley rats, fed ad libitum 15 weeks): adjusted food consumption to regulate caloric intake to a large extent
audiogenic seizure activity (Ube3a-deficient mice [7]; AS mice after 8 weeks on the diet, listed as ketone ester): decreased; also recorded: decreases seizure activity
audiogenic seizure frequency (Ube3a-deficient mice [7]; AS treated group after 8 weeks on the diet, 120-dB white noise): 86%
latency to seize (Ube3a-deficient mice [7]): increases latency to seize
latency to seize (Ube3a-deficient mice [7]; listed as ketone ester): increased
blood ketones ([8]; listed as KE): elevated ketones
blood ketones [8, 11]: increases blood ketone levels
blood glucose ([8]; listed as KE): decreased blood glucose
blood glucose [8, 11]: decreases blood glucose
body weight / weight gain [9]: normalizes body weight
body weight / weight gain [9, 11]: normalizes weight
contextual fear conditioning (hippocampal-dependent learning) (Ube3a-deficient mice [10]; 24 hours after training): improves hippocampal-dependent learning
fear conditioning training phase (freezing) (Ube3a-deficient mice [10]; training phase): does not affect the fear conditioning training phase
